Data published in US7192929B2, “Peptides effective in the treatment of tumors and other conditions requiring the removal or destruction of cells” (Nymox Corporation, priority 2001, dated 2007).
Ends that are not written are not given here.

What was measured:
[1] = test system: normal rodent muscle tissue, subcutaneous connective tissue, and dermis; settings: cited from earlier work
[2] = test system: glioma and neuroblastoma cell cultures; settings: cited from earlier work
[3] = test system: human and non-human origin tumors, including mammary carcinoma, skin carcinoma and papilloma, colon carcinoma, glioma of brain; settings: variety of human and non-human origin tumors in rodent models; cited from earlier work
[4] = test system: muscle tissue, subcutaneous connective tissue, and dermis; format: in vivo, rat; settings: for effect on tissue at sites of injection (histopathology): normal rats, skin, subcutaneous and skeletal muscle injection, in saline, 0.1–1 mg/mL, sacrificed at 24 hours
Description: Four normal rats were injected in the skin and subcutaneously, each in four different foci, and in extremity skeletal muscle, each in two different foci, with NTP peptide #7 in saline in quantities of […] at concentrations of 0.1–1 mg/mL delivered from plastic syringes through stainless steel 26 gauge needles.
The individual foci of infiltration were excised, fixed in 10% formalin, embedded in paraffin, and stained and examined by standard histopathological methods.
The controls received saline alone.
Rats were injected in the skin and subcutaneously as in Example 1 above, except they were injected with NTP peptide #14.
Tissues were excised, fixed in 10% formalin, embedded in paraffin, and stained and examined by standard histopathological methods.
The controls were the same as Example 1.

[5] = test system: prostate; assay: Intraprostatic infusion in rats, histology of prostate gland; format: in vivo, rat; settings: 300 μl of 1 mg/mL in PBS pH 7.4 (1.0 mg/kg), sacrificed after 72 hours
Description: Four rats were anesthetized with ether and given NTP peptide #7 by intraprostatic infusion. The injections consisted of 300 μl of NTP peptide #7 1 mg/mL in PBS pH 7.4. (1.0 mg/kg). Controls received injections of PBS alone or no injection. Rats were painlessly sacrificed after 72 hours. Prostate glands were dissected, fixed in 10% buffered formalin for 24 hours, embedded in paraffin, sectioned, and stained with H & E. For each animal the entire prostate gland was embedded and sectioned. All stained sections were examined histologically.
Normal rats were injected in the prostate as in the above Example 2, except they were injected with NTP peptide #17. Rats were painlessly sacrificed after 72 hours and their prostate glands were examined as in Example 2.

| Substance | effect on tissue at sites of injection (histopathology) [4] | effect on prostate tissue at sites of injection (histology) [5] | also measured |
| --- | --- | --- | --- |
| AD7c-NTP protein: ˜41 kD membrane associated phosphoprotein, a neural thread protein; sequence in FIG. 1 |  |  | causing cell death in vivo in normal tissue [1]: effective agent for causing cell death; causing cell death in vitro [2]: effective agent for causing cell death; causing cell death in vivo in tumors [3]: effective agent for causing cell death |
| LSLPSSWDYG [NTP peptide #7] | necrosis of tissue at the injection sites | necrosis of tissue at the injection sites with loss of glandular epithelium, flattening and atrophy | spread of necrosis beyond the site of injection ([4]; rat, in vivo, sc): did not appear to spread far beyond the site of injection |
| PASASPVAGITGM [NTP peptide #17, …; AD7c-NTP p31–43] |  | significant cell loss and atrophy in the prostate |  |
| WDYRRFIFNFL [NTP peptide #14, …; AD7c-NTP p241–245 + AD7c-NTP p197–202] | cell death and necrosis of tissue at the injection sites |  |  |
